Results reported in PubChem BioAssay AID1963597 (National Center for Advancing Translational Sciences (NCATS), 2024).
Residues, ends and D or L forms follow the SMILES beside them.

These compounds were tested on human liver microsomes, metabolic stability half-life (assay: NCATS Human Liver Microsomal (HLM) Stability Profiling). Conditions: higher = more stable; screened at 1 µM (by protocol).
From the text: Assay submitter (PI): Dr. Pranav Shah
NIH Center for Advancing Translational Sciences
Pharmacokinetic issues were the leading cause of drug attrition, accounting for approximately 40% of all cases before the turn of the century. To this end, several high-throughput in vitro assays like microsomal stability have been developed to evaluate the pharmacokinetic profiles of compounds in early stages of drug discovery. At NCATS, a single-point rat liver microsomal (RLM) stability assay is used as a Tier I assay, while human liver microsomal (HLM) stability is employed as a Tier II assay. While it is beneficial to have compound libraries screened for HLM stability, the increasing magnitude of hits routinely generated, and the time- and re-source-intensive nature of the assay makes it important to find alternatives. One strategy is to rely on in silico models that have been developed using data generated from these assays. Herein, we describe the development of an HLM stability prediction model using our in-house dataset of ~7,000 compounds, employing both traditional and advanced machine learning methods. Additionally, the strong correlation between our RLM and HLM data was further reinforced by the fact that our HLM model performance improved after adding RLM stability predictions as an input descriptor. […] The best model along with a subset of our dataset has been made publicly accessible on the NCATS@ADME website for the benefit of the greater drug discovery community.
Microsomal Stability Assay
The substrate depletion method, also called the in vitro t1/2 method was used to analyze test compounds. Incubation and liquid handling were carried out using a previously described method (Shah et al., 2016). Briefly, each reaction mixture (110 µL) consisted of a test article (1 µM), human liver microsomes (0.5 mg/mL), and NADPH regenerating system in phosphate buffer at pH 7.4. Samples were incubated in 384-well plates at 37 degrees C for 0, 5, 10, 15, 30 and 60 min. At each time point, 10 µL of the incubation mixture was aspirated into another 384-well plate which contained cold acetonitrile (ACN) with internal standard (albendazole). All plates were centrifuged at 3000 rpm for 20 min at 4 degrees C, and the supernatants were transferred to a 384-well injection plate. Sample quantification and analysis was performed using a previously described method (Shah et al., 2016, Siramshetty et al., 2020).
1: Shah, P. et al. An Automated High-Throughput Metabolic Stability Assay Using an Integrated High-Resolution Accurate Mass Method and Automated Data Analysis Software. Drug Metab Dispos 44, 1653-1661 (2016).
2: Siramshetty et al. Retrospective assessment of rat liver microsomal stability at NCATS: data and QSAR models. Sci Rep 26;10(1):20713 (2020).

SMILES	half-life
COc1ccc2nc([C@H]3CCN(Cc4ccc(C(=O)O)cc4)C3)[nH]c2c1	> 120 min
Cc1cc(O)c(-c2ccc([C@@H](C)CN(C)C)cc2)c2c1[nH]c(=O)c1sccc12	95.3 min
O=C(CCC1CCN(Cc2ccccc2)CC1)c1ccc2c(c1)NCCCC2	5.22 min
CNc1nccc(-c2cccnc2Oc2cc(C(=O)Nc3cccc(C(F)(F)F)c3)ccc2C)n1	11.3 min
CC(C)Oc1ccc2c(=O)c(-c3ccccc3)coc2c1	16.1 min
COc1ccc(CN2CCC3(CC(C)=NO3)C2)cc1 (configuration not stated)	19.2 min
CN(C)S(=O)(=O)c1ccc(S(=O)(=O)N(Cc2ccccc2Cl)C[C@@H]2CCCO2)cc1	1.28 min
COc1ccc(CN2CCN(C(c3ccc(F)cc3)c3ccc(F)cc3)CC2)c(OC)c1OC	13.1 min
c1ccc(N2CCN(CCc3nn[nH]n3)CC2)cc1	> 120 min
CCOP(=S)(OCC)Oc1nc(Cl)c(Cl)cc1Cl	1.81 min
CCN(CC)C(=O)C(c1ccccc1)N1CCN(c2ccc(NC(=O)c3ccccc3-c3cccnc3)cc2F)CC1 (configuration not stated)	4.93 min
CCN(CC)CC(=O)Nc1c(C)cccc1C(=O)OC	24 min
Cn1cc(-c2ccc3nnc(Sc4ccc5nn(C)cc5c4)n3n2)cn1	> 120 min
N#Cc1cccc(CN2CC(COc3ccccc3)C3(C2)CN(c2ccccc2)C3)c1 (configuration not stated)	3.65 min
Nc1cccc(CNC(=O)c2ccc(Oc3ccc(OCc4cccc(F)c4)cc3)nc2)c1	29.7 min
CC(C(=O)O)c1ccc2c(c1)[nH]c1ccc(Cl)cc12 (configuration not stated)	> 120 min
Cc1ccc2c(c1)c1c3n2CCNC3CCC1 (configuration not stated)	8.9 min
Cc1nc2c(-c3cnc(N)nc3)nc(N3CCOCC3)nc2n1C(C)C	> 120 min
CCc1noc(-c2ccc(NCc3ccccc3)c([N+](=O)[O-])c2)n1	4.39 min
Cc1ccc2nc(-c3cc(NC(=O)c4ccc5c(c4)OCCO5)ccc3Cl)oc2c1	63.3 min
Cc1ccc2c(c1)c1c(n2CCc2ccc(C)nc2)CCN(C)C1	8.67 min
Cc1ccccc1-n1c(SCc2ccc(Cl)cc2)nc2[nH]ncc2c1=O	53.2 min

SMILES	half-life
COCCCN1CCC(NC(=O)c2cc(Cl)c(N)c3c2OCC3)CC1	> 120 min
Cc1cc2c(F)c(Oc3ncnn4cc(OCC(C)OC(=O)C(C)N)c(C)c34)ccc2[nH]1 (configuration not stated)	1.26 min
OCCN1CCN(CC/C=C2/c3ccccc3Sc3ccc(C(F)(F)F)cc32)CC1	48.4 min
Cc1ccc(-n2c(SCc3ccccc3F)nc3[nH]ncc3c2=O)cc1C	21.6 min
CC(C)CC(N(C)C)C1(c2ccc(Cl)cc2)CCC1 (configuration not stated)	3.57 min
Cc1oc(=O)oc1COC(=O)[C@@H]1N2C(=O)[C@@H](NC(=O)[C@H](N)c3ccccc3)[C@H]2SC1(C)C	12.2 min
Cc1ccc(NC(=O)Cn2c(=O)n(CCC(=O)N3CCc4ccccc4C3)c(=O)c3ccccc32)c(C)c1	1.41 min
COc1ccc(OC)c(C2C(C#N)=C(N)Oc3n[nH]c(-c4ccc5ccccc5c4)c32)c1 (configuration not stated)	> 120 min
Cc1c(C)n(Cc2ccc(-c3ccccc3C(=O)O)cc2)c2ccc(C(=O)N[C@@H](C)c3ccc([N+](=O)[O-])cc3)cc12	> 120 min
O=C(NCCN1CCN(c2cccc3c2OCCO3)CC1)c1ccc(F)cc1	34.2 min
NC(N)=Nc1nc(CSCC/C(N)=N/S(N)(=O)=O)cs1	> 120 min
Fc1ccc(-c2nc(C3CCNCC3)sc2-c2ccnc(NC3CC3)n2)cc1	> 120 min
COc1ccc(C(CN(C)C)C2(O)CCCCC2)cc1 (configuration not stated)	> 120 min
Cc1noc(C)c1-c1cc(O)cc(C(O)c2ccccc2)c1 (configuration not stated)	46.2 min
CCN(CC)CCCCCCNc1cc(OC)cc2c(C)ccnc12	> 120 min
CCN1CCCC1=O	> 120 min
O=C(O)c1ccc(CN2CCOC[C@H]2c2ncc(-c3ccc(F)cc3)[nH]2)cc1	> 120 min
CCOC(=O)c1ncn2c1CN(C)C(=O)c1c(I)cccc1-2	111 min
C[C@]12CC[C@H]3[C@@H](CC[C@@]45O[C@H]4C(O)=C(C#N)C[C@]35C)[C@H]1CC[C@H]2O	85 min
Cc1cc2c(F)c(Oc3ncnn4cc(OCC(C)O)c(C)c34)ccc2[nH]1 (configuration not stated)	> 120 min
Cn1cc(-c2cnc3ccc4ccc(CS(=O)(=O)NCc5ccccn5)cc4c(=O)c3c2)cn1	17.1 min
Cc1nc2c(C(F)(F)F)cccc2nc1-c1ccc(-c2cccc(S(C)(=O)=O)c2)cc1	> 120 min

SMILES	half-life
CCc1cccc(CC)c1NC(=O)N1Cc2[nH]nc(NC(=O)c3ccc(N4CCN(C)CC4)cc3)c2C1	> 120 min
O=C(CCCN1CCC(n2c(=O)[nH]c3ccccc32)CC1)c1ccc(F)cc1	> 120 min
CC[C@]1(C2=NCCN2)Cc2ccccc2O1	> 120 min
COc1cc2c(NC3CCN(CC4CCCCC4)CC3)nc(N3CCCN(C(C)C)CC3)nc2cc1OCCCN1CCCCC1	30 min
Fc1ccccc1-c1nc2ccn(Cc3ccc(-c4ccc(C(F)(F)F)cc4C(F)(F)F)nn3)cc-2n1	> 120 min
Cc1onc(-c2ccccc2)c1-c1ccc(S(N)(=O)=O)cc1	> 120 min
CN1C(C(=O)Nc2ccccn2)=C(O)c2sccc2S1(=O)=O	> 120 min
CC1CC(C)C(=O)C(C(O)CC2CC(=O)NC(=O)C2)C1 (configuration not stated)	> 120 min
OCCCNc1cc(-c2ccnc(Nc3cccc(Cl)c3)n2)ccn1	24.5 min
O=S(c1cc(Cl)cc(Cl)c1O)c1cc(Cl)cc(Cl)c1O	99.8 min
CC(C)(C)c1cnc(CSc2cnc(NC(=O)C3CCNCC3)s2)o1	> 120 min
O=C(Nc1c(-c2cccs2)nc2ccccn12)c1ccc(Cl)cc1	> 120 min
c1ccc(C2CC2)c(OCC2=NCCN2)c1	> 120 min
COCc1c(Cl)ccc2c1CC[C@H]2c1ncc[nH]1	115 min
COc1cccc(CCc2ccccc2OCC(CN(C)C)OC(=O)CCC(=O)O)c1 (configuration not stated)	38.8 min
COc1ccc(CNC(=O)c2cnn(-c3ccc(C)cc3)c2C2CCN(C(=O)OC(C)(C)C)CC2)cc1	0.7 min
CC1(C)O[C@@H]2C[C@H]3[C@@H]4C[C@H](F)C5=CC(=O)CC[C@]5(C)[C@H]4[C@@H](O)C[C@]3(C)[C@]2(C(=O)CO)O1	18 min
CCc1cc2cc(OC)c(OC)cc2c(Cc2ccccc2)n1	8.36 min
CS(=O)(=O)c1ccc([C@@H](O)[C@@H](CO)NC(=O)C(Cl)Cl)cc1	> 120 min
CC1(c2ccccc2)N(Cc2ccccc2)C(=O)OC12CCN(Cc1cccc(C#N)c1)CC2 (configuration not stated)	2.04 min
COc1cc2ncnc(Nc3cc(Br)c(O)c(Br)c3)c2cc1OC	> 120 min
CC(=O)O[C@]1(C(C)=O)CC[C@H]2[C@@H]3C=C(Cl)C4=CC(=O)CC[C@]4(C)[C@H]3CC[C@@]21C	36.7 min

SMILES	half-life
NC(=O)c1ccc(Cc2c(-c3cccc(-c4ccccc4)c3)[nH]n(-c3nc(C(=O)O)cs3)c2=O)cc1	> 120 min
CC1COC2(c3ccccc3Cl)c3cc(Cl)ccc3NC(=O)CN12 (configuration not stated)	9.03 min
CCNc1nc(Cl)nc(NCC)n1	59.4 min
COc1ccc(C(=O)n2c(C)c(Cc3cccc(O[C@@H](C)C(=O)O)c3)c3cc(OC(F)(F)F)ccc32)cc1	> 120 min
CN(C)c1ccc2nc3ccc(=[N+](C)C)cc-3sc2c1	> 120 min
O=c1c(-c2ccccc2)c1-c1ccccc1	3.57 min
O=C(Nc1ncc(-c2cc(C(F)F)nn2-c2c(Cl)cccc2Cl)s1)C1CC1	> 120 min
COc1ccc(CNC(=O)C2CCCN(c3nnc(C)c4c(C)n(-c5ccc(C)cc5)nc34)C2)cc1 (configuration not stated)	5.53 min
Cc1nc2c3ccccc3nc(NNC(=O)CCC(=O)N3CCN(c4ccc(F)cc4)CC3)n2n1	40.4 min
O=C(O)c1ccc(OCCN2CCCCC2)cc1	> 120 min
O=C(O)C1CN(Cc2ccc(-c3nc4cc(Cc5ccccc5F)ccc4s3)c(F)c2)C1	> 120 min
O=[N+]([O-])c1cccc(S(=O)(=O)NCCNS(=O)(=O)c2cccc([N+](=O)[O-])c2)c1	52.3 min
Cc1ccc(C(C)(O)c2nc3ccccc3s2)c(C)c1 (configuration not stated)	4.22 min
Cc1ccc(C)c(N2CCN(CCCNC(=O)c3ccc4nc(C(C)C)oc4c3)CC2)c1	13.8 min
Cc1coc2c1C(=O)C(=O)c1c-2ccc2c1CCCC2(C)C	5.39 min
NC(=O)c1ccccc1O	> 120 min
CCN(CC)CCOc1ccc2c(c1)C(=O)c1cc(OCCN(CC)CC)ccc1-2	> 120 min
COC(=O)[C@H](Cc1ccccc1)NC(=O)[C@@H](N)CC(=O)O (H-Asp-Phe-OMe)	40.7 min
O=C(CSc1nnc(-c2cccc(F)c2)c(-c2cccc(F)c2)n1)NC1CCCCC1	10.8 min
O=C(CO)N1CCC(c2[nH]nc(-c3ccc(Cl)cc3)c2-c2ccncn2)CC1	> 120 min
CN(C)[C@@H]1C(=O)C(C(N)=O)=C(O)[C@@]2(O)C(=O)C3=C(O)c4c(O)ccc(Cl)c4[C@@H](O)[C@H]3C[C@@H]12	> 120 min
